Several values for one entry are separate records, joined by “and”; a condition that tells them apart may be missing. Identical values can stand only once.
Key:
WT ELIC = experiment: Asymmetric liposome stopped-flow Tl+ flux assay (no exchange vs exchange, 25 mol% outer leaflet POPG); type: biochemical, Erwinia chrysanthemi; set-up: key to Tl+ flux quenching rate, Avg. / Tl+ flux quenching rate: Tl+ influx rate kt at 2 ms from stretched-exponential fit (Eq. 2b); conditions: for Tl+ flux quenching rate, Avg. / Tl+ flux quenching rate: No-exchange: WT in 3:1 PC:PE with just beta-CD, 10 mM propylamine; for Tl+ flux quenching rate: single experiments
Procedure: The fluorescence sequential-mixing stopped-flow liposomal flux measurements were carried using an SX20 stopped-flow spectrofluorometer (Applied Photophysics) and Pro-Data SX software[13],[30]. 7.5 mg of the respective lipid mixture (POPC, 1:1 POPC: POPE, 1:1 POPC:POPG, 3:1 POPC:POPE, 3:1 POPC:POPG, 2:1:1 POPC:POPE:POPG) was dried in a glass vial to a thin film under a constant stream of N2. The lipids were then further dried under vacuum in a desiccator overnight. The following day the lipids were hydrated in 500 µl of reconstitution buffer (100 mM NaNO3, 10 mM HEPES, pH 7) (Buffer R), 250 µl of 75 mM 8-Aminonaphthalene-1,3,6-Trisulfonic Acid (ANTS, ThermoFisher Scientific) in buffer R, and doped with ~18 mg of CHAPS (Anatrace). The mixture was vortexed and then sonicated with heat until completely solubilized. Following the sonication, the solution was brought to RT then 3.5 µl of 6.7 mg/ml ELIC in Buffer A with 0.02% DDM was added (3 µg per mg of lipid). This combined solution was incubated at RT for 30 min, followed by the addition of 1 ml of 1:1 v/v SM-2 BioBeads in Buffer R and an additional 250 µl of 75 mM ANTS in Buffer R. This mixture was incubated at RT for 2.5 hr with gentle mixing. The liposome suspension was then extruded with an Avanti mini-extruder and 0.1 µm membrane (30×). The extruded liposomes were stored at 13 °C overnight with gentle rotation. The next day, the liposomes were diluted to 2.5 mL using assay buffer (140 mM NaNO3, 10 mM HEPES, pH 7) (Stopped-flow Buffer A), loaded into a PD-10 desalting column (Cytiva), eluted with 3 mL of Stopped-flow Buffer A and subsequently diluted 5-fold with Stopped-flow Buffer A.
Using propylamine as the agonist, the assay and analysis was carried out as previously described[13],[30]. ELIC-containing liposomes were first mixed 1:1 with Buffer A containing 2× the concentration of propylamine. After a variable delay of 10 ms to 25 s, the sample was then mixed 1:1 with a quenching buffer (90 mM NaNO3, 50 mM TlNO3, 10 mM HEPES, pH 7), and ANTS fluorescence (ex. 360 nm, fluorescence above 420 nm) was recorded for 1 s. For each delay time, 5 repeat measurements were obtained. The data were collected using Applied Photophysics Pro-Data SX software. The fluorescence quenching traces were fit to a stretched exponential (Eq. 2a) and the rate of Tl^+ influx was determined at 2 ms (Eq. 2b).2a Ft=F∞+F0−F∞⋅e^−t/τ^β 2b kt=β/τ⋅2ms/τ^(β−1) where Ft, F∞, F0 are the fluorescence at time t, final fluorescence and initial fluorescence. τ is the time constant, β the stretched exponential factor, and kt the calculated rate of Tl^+ influx at 2 ms. The time course of desensitization was also fit to a double exponential and a weighted time constant was calculated as was done for the patch-clamp data using Origin 2019b. All replicates were taken from independent samples.
Acceptor liposomes were prepared as described in the Stopped-flow fluorescence recordings section until completion of the extrusion step. The preparation was scaled up 2x to produce samples for the no-exchange and exchange conditions. After extrusion and storage of the liposomes overnight at 13 °C, the double liposome preparation was split into two equal volume aliquots of ~1.5 ml. Using the excel spreadsheet provided by Markones et al.[44], donor POPG and methyl-β-cyclodextrin (MβCD, Sigma) concentrations and volumes were calculated to produce an outer leaflet POPG content of 25 mol% in the liposomes. The calculations assumed a ~6.66 mM lipid concentration and 1.5 mL volume of the acceptor liposome solution[44]. A MβCD-POPG (50% saturation of MβCD by POPG) solution was formed by combining 224 µL 7.5 mM POPG in Stopped-flow Buffer A, 650 µl 300 mM MβCD in Stopped-flow Buffer A, and 126 µL Stopped-flow Buffer A, which was then mixed at 50 °C and 1000 RPM for 20 min using an Eppendorf thermomixer. […]

ELIC = conditions: cited from earlier work

For methyl-β-cyclodextrin, the “Tl+ flux quenching rate, Avg.” value (WT ELIC; delay 0.01 s) was 12.9647, the “Tl+ flux quenching rate, Avg.” value (WT ELIC; delay 0.025 s) was 13.7625 and the “Tl+ flux quenching rate, Avg.” value (WT ELIC; delay 0.05 s) was 18.86. For the same compound, the “Tl+ flux quenching rate, Avg.” value (WT ELIC; delay 0.1 s) was 31.5581, the “Tl+ flux quenching rate, Avg.” value (WT ELIC; delay 0.25 s) was 29.5756 and the “Tl+ flux quenching rate, Avg.” value (WT ELIC; delay 0.5 s) was 31.8845. The “Tl+ flux quenching rate, Avg.” value (WT ELIC; delay 1 s) was 34.9406, the “Tl+ flux quenching rate, Avg.” value (WT ELIC; delay 2.5 s) was 21.2322 and the “Tl+ flux quenching rate, Avg.” value (WT ELIC; delay 5 s) was 10.788. The “Tl+ flux quenching rate, Avg.” value (WT ELIC; delay 10 s) was 2.374, the “Tl+ flux quenching rate, Avg.” value (WT ELIC; delay 25 s) was 1.305 and the “effect on ELIC responses” value (WT ELIC; methyl-β-cyclodextrin alone, 3:1 POPC:POPE liposomes) was “did not alter ELIC responses”. For the same compound, the “Tl+ flux quenching rate” value (WT ELIC; delay 0.025 s) was 9.097 and 18.0228 and 11.9906 and 15.9401, the “Tl+ flux quenching rate” value (WT ELIC; delay 0.25 s) was 35.4461 and 38.8846 and 20.2406 and 23.7309 and the “Tl+ flux quenching rate” value (WT ELIC; delay 2.5 s) was 25.1548 and 26.3221 and 15.7795 and 17.6721. For the same compound, the “Tl+ flux quenching rate” value (WT ELIC; delay 5 s) was 10.4577 and 9.241 and 15.1687 and 8.284.
In the case of `CC/C=C\C/C=C\C/C=C\C/C=C\C/C=C\C/C=C\CCC(=O)O` [DHA, docosahexaenoic acid], the “effect on ELIC agonist response” value (ELIC) is given as “decreases peak agonist response and increases desensitization”.
For cardiolipin, the “effect on ELIC” value (ELIC) is listed as “positively modulates ELIC”.
